Data from patent US7230094B2, “Neutral sphingomyelinase antisense ribozyme and uses thereof” (priority 2001, dated 2007).

Legend:
Type in all cases: cell-based, human
[1] = system: MG-63 cells; experiment: Apoptosis by DAPI staining and counting of apoptotic cells; settings: for Increase in apoptosis compared to untreated cells: N-SMase-deficient (ribozyme) cells treated with C2 ceramide; for Increase in apoptosis assessed by DAPI staining: sham-transfected cells
Protocol: FIG. 6 depicts a quantitative analysis of the effects of TNF-α, C2-Ceramide and Fas-ligand on apoptosis in mutant (CC) and WT (MG-63) cells, as well as wild type/mock transfected cells. Cells were grown on glass cover slips and incubated for 24 hours with TNF-α (20 ng/ml), cell-permeable ceramide (C2-Ceramide) (10 ng/ml) or Fas-L (1 ng/ml). Cells were fixed and stained with DAPI and photographed at 50× magnification. Apoptotic cells were counted using a hemocytometer. The basal levels of apoptotic cells were: MG-63 (3%); L-3 (3%); and CC (2.8%). Errors bars indicate ±S.D. (N=2).
WT (MG-63), LacZ (L-3) and mutant (CC) cells were grown on glass cover slips and incubated for 24 hr with TNF-α (20 ng/ml), cell-permeable ceramide (C2-ceramide) (10 ng/ml) or Fas-L (1 ng/ml). Cells were fixed and stained with DAPI stain and photographed (50×). Apoptotic cells were counted using a hemocytometer and compared to total cell counts per field. Basal levels of apoptosis were 3% untransfected, 3% control transfection, and 2.8% ribozyme transfection.

[2] = system: caspase-3 and cytochrome-C release; experiment: Caspase-3 and cytochrome-C release by western analysis and densitometry; settings: control (sham-transfected) cells
Protocol: In order to determine a dose-response relationship between the concentration of TNF-α or FasL and apoptosis, western analysis was used to quantitate release of both caspase-3 (FIG. 9) and cytochrome-C (FIG. 10).
Immunoblots for the measurement of cytochrome-C and caspase-3 were carried out after incubation of cells with TNF-α (10 ng/ml) or FasL (1 ng/ml) for 48 hours. Cells were extracted with a buffer (20 mM Hepes pH 7.5, 10 mM KCl, 1.5 mM MgCl2, 5 mM EDTA, 5 mM DTT, 2 mM phenylmethylsulfonylfluoride, 1% NonidetP40, 0.5% sodium deoxycholate, 0.1% SDS, 2 μg/ml leupeptin, 2 μg/ml aprotinin, 0.5 μg/ml benzamindine, and 250 mM sucrose) on ice for 30 minutes. After centrifugation for 10 minutes at 10,000×g, the supernatant was used for western analysis with an antibody for cytochrome-C (Pharmingen, San Diego, Calif.). For assessment of caspase-3, samples were similarly processed in addition to passage through a 21-g needle prior to centrifugation. The western analysis was performed with a rabbit polyclonal IgG antibody to caspase-3 (Santa Cruz, Calif.) raises against an epitope corresponding to amino acids 1–277, representing the full-length precursor form of CPP-32 (caspase-3). For both caspase-3 and cytochrome-C, bands were quantified with densitometric analysis.

[3] = system: N-SMase; experiment: TNF-α and Fas ligand induced N-SMase activity in WT and mutant cells; settings: for N-SMase activity under cytokine stimulation: sham-transfected cells stimulated with TNF-α and Fas-L, basal 2.7
Protocol: FIGS. 4A–4B depict the effects of incubation with TNF-α (FIG. 4A) and Fas ligand (FIG. 4B) over time on the activity of N-SMase in mutant and WT cells. Confluent cultures of WT (MG-63) and mutant (CC) cells were incubated with serum free medium with or without TNF-α ([…]) or Fas ligand (1 ng/ml). At the indicated intervals, cells were harvested, centrifuged, and lysed in buffer containing 0.1% Triton™ X-100, 25 mM Tris (pH 7.4), 5 mM EDTA, 1 mM phenylmethylsulfonyl fluoride (PMSF), and 2 μg each of chymostatin, leupeptin, antipain, and pepstatin A. 100 μl of a reaction mixture containing 50 mM Tris (pH 7.4), 5 mM MgCl2, 0.05% Triton™ X-100, 5 mM dithiothreitol (DTT) and 10 nmol [^14C] sphingomyelin (100,000 cpm) was added to 5–10 μl of cell lysate (100 μg protein). The basal activity of N-SMase was 2.7±0.1 nmol/mg protein/hr in MG63 cells and 0.67±0.1 nmol/mg protein/hr in CC cells. These levels were defined as 100% activity. Error bars indicate ±S.D. (N=3).
Tumor necrosis factor alpha (TNF-α) is known to induce programmed cell death through stimulation of sphingomyelinase activity and generation of ceramide. This example describes the ability of the ribozyme directed against N-SMase to inhibit this pathway. The effects of incubation with TNF-α and Fas ligand over time on the activity of N-SMase in mutant and WT cells are shown in FIGS. 4A and 4B, respectively. Confluent cultures of WT (MG-63) and mutant (CC) cells were incubated with serum free medium with or without TNF-α ([…]) or Fas ligand (1 ng/ml), and the activity of N-SMase was determined by measuring the cleavage of [^14C]sphingomyelin. At 0, 10, 20, 30, 40, 50, and 60 minutes, cells were harvested, centrifuged, and lysed in buffer containing 0.1% Triton™ X-100, 25 mM Tris (pH 7.4), 5 mM EDTA, 1 mM phenylmethylsulfonyl fluoride (PMSF), and 2 μg each of chymostatin, leupeptin, antipain, and pepstatin A. 100 μl of a reaction mixture containing 50 mM Tris (pH 7.4), 5 mM MgCl2, 0.05% Triton™ X-100, 5 mM dithiothreitol (DTT) and 10 nmol [^14C]sphingomyelin (100,000 cpm) was added to 5–10 μl of cell lysate (100 μg protein). The basal activity of N-SMase was 2.7±0.1 nmol/mg protein/hr in MG63 cells and 0.67±0.1 nmol/mg protein/hr in CC cells. These levels were defined as 100% activity.

[4] = system: ceramide production by N-SMase; experiment: Ceramide level, modified diacylglycerol kinase assay; settings: sham-transfected cells stimulated with TNF-α and Fas-L
[5] = system: MG-63 cells; experiment: Cell viability by trypan blue staining; settings: control cells, TNF-α in various concentrations, 24 hours
Protocol: FIG. 8 depicts the effect of TNF-α on viability of wild type, ribozyme transfected and wild type/mock transfected cells. Cells ([…]) were seeded in 96 well sterile plastic trays. Upon confluence medium was replaced with serum free minimum essential medium and TNF-α (20 ng/ml). After incubation for 24 h at 37° C., viability of cells were determined by Trypan blue staining. The results represent ±S.D. of three experiments.
The population of viable cells was determined using trypan blue staining. Cells (10^4) were seeded in 96 well plates. Twenty-four hours later, the media was replaced with serum-free MEM, and TNF-α in various concentrations was added. After incubation for 24 hours at 37° C., the cells were trypsinized, and viable cells were counted after staining with trypan blue. Values were compared to the original cell count (10^4) and expressed as a percentage.

| Increase in ceramide production [4] | Compound | Increase in apoptosis compared to untreated cells [1] | Increase in apoptosis compared to untreated cells ([1]; listed as C2-ceramide) | Increase in apoptosis assessed by DAPI staining [1] | Dose-response of caspase-3 and cytochrome-C release [2] | N-SMase activity under cytokine stimulation [3] [nmol/mg protein/hr] | DAPI staining ([1]; control-transfected cells, TNF-α 20 ng/ml for 24 hours, compared to untransfected cells) [%] | Decline in population of viable cells [5] | Peak N-SMase activity relative to unstimulated cells ([3]; control transfected clones, 10 minutes after addition of TNF-α) [%] |
| --- | --- | --- | --- | --- | --- | --- | --- | --- | --- |
|  | CCCCCCCCCCCCC/C=C/[C@@H](O)[C@H](CO)NC(C)=O [C2 ceramide] | about 2.5 fold | greater than two-fold increase |  |  |  |  |  |  |
| about 2 fold | Fas ligand: ligand for Fas/Apo-1 (CD95), used as apoptosis agonist [reference compound] |  |  | about 4 fold | linear dose-response relationship | 4.0 |  |  |  |
| about 2 fold | Tumor necrosis factor alpha [TNF-α, reference compound] |  |  | about 4 fold | linear dose-response relationship | 4.0 | 490 | prompt decline | 140 |
